Assay results published in patent US11970473B2, “Nootkatone derivatives and methods of using the same” (Arkansas State University—Jonesboro, priority 2021, dated 2024).
Converted amounts (≈) assume the structure as drawn.

Key:
S. aureus strains = test: MIC, summary over S. aureus strains; type: cell-based; conditions: Staphylococcus aureus; lowest MIC over S. aureus strains; read-out: minimum inhibitory concentration (MIC) value as low as
Experimental: (§1) Minimal inhibitory concentration (MIC) assay The standard microdilution method recommended by the Clinical and Laboratory Standards Institute (CLSI) was used to determine the MIC of the antibiotics. The starting concentration of compounds was 50 μg/ml and 2-fold dilution was done down the 96 honeycomb well plate column. The MIC assay was conducted in triplicates.

[1] = test system: treated bacteria (differentially expressed proteins); test: Quantitative proteomics: protein regulation by Compound 16 versus DMSO control
[2] = test system: S. aureus ATCC 33592 (Sa92); test: Minimal inhibitory concentration (MIC) assay; type: cell-based; conditions: Staphylococcus aureus, ATCC33592; S. aureus ATCC 33592, antibiotic-resistant strain; read-out: Antimicrobial activity (MIC) Sa92
Experimental: as §1

[3] = test system: Enterococcus faecalis ATCC 29212 (Es12); test: Minimal inhibitory concentration (MIC) assay; type: cell-based; conditions: ATCC29212; Enterococcus faecalis ATCC 29212; read-out: Antimicrobial activity (MIC) Es12
Experimental: as §1

[4] = test system: S. aureus ATCC 33591 (Sa91); test: Minimal inhibitory concentration (MIC) assay; type: cell-based; conditions: Staphylococcus aureus, ATCC33591; S. aureus ATCC 33591, antibiotic-resistant strain; read-out: Antimicrobial activity (MIC) Sa91
Experimental: as §1

[5] = test system: S. aureus ATCC 25923 (Sa23); test: Minimal inhibitory concentration (MIC) assay; type: cell-based; conditions: Staphylococcus aureus, ATCC25923; S. aureus ATCC 25923, antibiotic susceptible strain; read-out: Antimicrobial activity (MIC) Sa23
Experimental: as §1

[6] = test system: Enterococcus faecium ATCC 700221 (Em21); test: Minimal inhibitory concentration (MIC) assay; type: cell-based; conditions: Enterococcus faecium, ATCC700221, Enterococcus faecium ATCC 700221; read-out: Antimicrobial activity (MIC) Em21
Experimental: as §1

[7] = test system: B. subtilis ATCC 6623 (Bs); test: Minimal inhibitory concentration (MIC) assay; type: cell-based; conditions: Bacillus subtilis, ATCC6623; B. subtilis ATCC 6623; read-out: Antimicrobial activity (MIC) Bs
Experimental: as §1

[8] = test system: S. aureus BAA-2312 (Sa12); test: Minimal inhibitory concentration (MIC) assay; type: cell-based; conditions: Staphylococcus aureus, BAA2312; S. aureus BAA-2312, antibiotic-resistant strain; read-out: Antimicrobial activity (MIC) Sa12
Experimental: as §1

[9] = test system: S. aureus ATCC 700699 (Sa99); test: Minimal inhibitory concentration (MIC) assay; type: cell-based; conditions: Staphylococcus aureus, ATCC700699; S. aureus ATCC 700699, antibiotic-resistant strain; read-out: Antimicrobial activity (MIC) Sa99
Experimental: as §1

MRSA persisters = test: Persister Cell Killing Assay
Experimental: A persister cell killing assay was performed following the methodology described by Kim et. al. with some modifications.^28 S. aureus strain was grown to stationary phase in CAMHB medium by shaking at 200 rpm overnight at 35° C. An aliquot of stationary phase culture (1 ml) was washed thrice with 1×PBS by centrifugation. After washing, the cells were diluted to ˜5×10^8 CFU/ml (confirmed by plate count). Diluted persister cells (2 ml) plus antibiotics at the desired concentration were incubated in sterile 10×75 mm plastic culture tubes at 35° C. with shaking at 200 rpm. At specific times, 400 μl aliquots were placed into microcentrifuge tubes and the cells washed and serially diluted in PBS. The diluted sample was plated on TSA agar plate with 5% sheep blood by the 6×6 drop plate method. Plates were incubated for 18-20 hours at 35° C., and then colonies were counted to calculate concentrations in CFU/ml. The experiment was performed in triplicates.

[10] = test system: S. aureus ATCC 700699 and S. aureus ATCC 33591; test: Time-Kill Assay; type: cell-based; conditions: 4×MIC
Experimental: Time kill assay for test antibiotics against S. aureus ATCC 700699 and S. aureus ATCC 33591 strains was conducted using procedures published previously.^26 Briefly, a log-phase bacterial culture was diluted to ˜5×10^6 CFU/ml in warm sterile CAMHB broth and was exposed to antibiotics at 4×MIC concentration then incubated at 35° C. Samples of 20 μl were taken every 2 hours, diluted 10 fold to 10^−5, and the 6×6 drop plate method was performed to determine viable CFU/ml after 18-24 hours of incubation at 35° C. Each antibiotic time-kill assay was conducted in triplicate.

C=C(C)[C@@H]1CC=C2c3sc(-c4ccc(O)c(O)c4)nc3C[C@@H](C)[C@]2(C)C1 [Compound 16]
MIC (S. aureus strains): 3.12 µg/mL (≈ 8.5 µM)
Log(FC) ([1]; gene SAV0307 (A0A0H3JQ49): Similar to outer membrane protein, ⅛ MIC): 1.313
Log(FC) ([1]; gene SAV0486: Initiation-control protein YabA, ⅛ MIC): −1.076
Log(FC) ([1]; gene SAV0831: Similar to thioredoxin, ⅛ MIC): −1.298
Log(FC) ([1]; gene SAV1155 (A0A0H3JUX1): Fibrinogen-binding protein, ⅛ MIC): 4.341
Log(FC) ([1]; gene SAV1291: Thiamine_BP domain-containing protein, ⅛ MIC): −1.399
Log(FC) ([1]; gene SAV1556: ABC transporter MreA, ⅛ MIC): −1.267
Log(FC) ([1]; gene SAV1615: UPF0473 protein SAV1615, ⅛ MIC): −1.3145
Log(FC) ([1]; gene SAV1617: UPF0297 protein SAV1617, ⅛ MIC): −2.321
Log(FC) ([1]; gene SAV1876: Uncharacterized protein, ⅛ MIC): −3.169
Log(FC) ([1]; gene SAV1880: UPF0435 protein SAV1880, ⅛ MIC): −1.529
Log(FC) ([1]; gene SAV2592: 3-dmu-9_3-mt domain-containing protein, ⅛ MIC): −1.105
Log(FC) ([1]; gene acpP: Acyl carrier protein, ⅛ MIC): −1.463
Log(FC) ([1]; gene coa (A0A0H3JPA2): Staphylocoagulase, ⅛ MIC): 4.524
Log(FC) ([1]; gene esxA: Type VII secretion system extracellular protein A, ⅛ MIC): −1.698
Log(FC) ([1]; gene ftnA: Bacterial non-heme ferritin, ⅛ MIC): −1.122
Log(FC) ([1]; gene gate: Aspartyl/glutamyl-tRNA (Asn/Gln) amidotransferase subunit C, ⅛ MIC): −2.722
Log(FC) ([1]; gene hit: Hit-like protein involved in cell-cycle regulation, ⅛ MIC): −1.253
Log(FC) ([1]; gene lip1 (P65288): Lipase 1, ⅛ MIC): 1.631
Log(FC) ([1]; gene mecA (A0A0H3JPA5): Penicillin binding protein 2 prime, ⅛ MIC): 1.378
Log(FC) ([1]; gene moaD: Molybdopterin synthase sulfur carrier subunit, ⅛ MIC): −1.617
Log(FC) ([1]; gene narG: Nitrate reductase (quinone), ⅛ MIC): −1.5746
Log(FC) ([1]; gene nasD: Nitrite reductase, ⅛ MIC): −1.201
Log(FC) ([1]; gene rsbV: Anti-sigma-B factor antagonist, ⅛ MIC): −1.199
Log(FC) ([1]; gene sbi (Q931F4): Immunoglobulin-binding protein Sbi, ⅛ MIC): 1.71
MIC [2]: 3.12 µg/mL (≈ 8.49 µM)
MIC [3]: 12.5 µg/mL (≈ 34 µM)
MIC [4]: 6.25 µg/mL (≈ 17 µM)
MIC [5]: 3.12 µg/mL (≈ 8.49 µM)
MIC [6]: 1.56 µg/mL (≈ 4.24 µM)
MIC [7]: 12.5 µg/mL (≈ 34 µM)
MIC [8]: 3.12 µg/mL (≈ 8.49 µM)
MIC [9]: 3.12 µg/mL (≈ 8.49 µM)
ability to kill MRSA persisters (MRSA persisters): inhibited the growth of persisters significantly
CFU count (MRSA persisters; after 4 hrs exposure, 128×MIC): 2×10^7 CFU
potency against the persister compared with positive controls (MRSA persisters; versus vancomycin and gentamicin): several fold more potent than the positive controls
eliminated bacteria at [10]: 6 h
time kill assay: mode of action [10]: bactericidal
